Source: US4687773A, “(+)-N-N-propylnorapomorphine and selective limbic activity” (priority 1985, dated 1987)
Structures can show the parent of a compound that is named as a salt. Where two headings read alike, the source gives them in different places.

Experiments:
[1] = system: dopamine (DA) receptors in the basal ganglia (corpus striatum); assay: Stereotyped licking and gnawing behavior rating in the rat; type: in vivo
Source text: Stereotypy: The mean stereotyped licking and gnawing behavioral rating scheme developed by Tarsy and Baldessarini^8 was used. […]
Stereotypy scores were rated for one hour as described in […]

[2] = system: dopamine (DA) receptors in the limbic system and basal ganglia; assay: Total motor activity, electronic activity monitor (EAM); type: in vivo, rat
Description: Activity: Overall motor activity was measured by use of the self-recording Stoelting electronic activity monitor method described previously by Stewart, Campbell, Sperk, and Baldessarini^9. Total activity is obtained by setting monitor sensitivity so as to detect both locomotion and small movements (such as grooming, sniffing, and chewing) as would be prominent in stereotyped responses that tend to diminish locomotion and increase sniffing, licking, and chewing movements. Locomotor activity is detected selectively by setting monitor sensitivity to detect large, locomotor movements, and to minimize smaller movements already described.
(§1) All data presented in the Tables below are expressed as the mean results from 4-6 rats per condition, ±S.E.M. Stereotypy is expressed in rating units (maximum=3.0) and activity is expressed in arbitrary units of percent change, derived from EAM counts per unit time, relative to activity in control (saline) animals set at zero.
All the posttreatment doses of (+)APO were 3.0 mg/kg, s.c. The data
All posttreatment doses of (+)NPA were 3 mg/kg, s.c. The data are similar

[3] = Catalepsy (latency to resume normal posture); type: in vivo, rat; conditions: s.c., maximum 18.0
Description: Catalepsy: This measure of muscle rigidity is assessed by having animals in abnormal body positions and timing their duration of maintaining these. This is done by placing rats on a wire grid placed at a 45° angle to the benchtop, or by placing their forelimbs on a raised horizontal metal bar, and timing the latency to resume a normal posture by stopwatch.
as §1

[4] = molecular target: T1, Dopamine (DA) sensitive adenylate cyclase (Rattus norvegicus, UniProt P18901); assay: Stimulation of formation of cyclic AMP in rat striatal homogenate; type: biochemical
T1 construct: homogenates of rat corpus striatum; from tissue; host or cells: rat corpus striatum homogenate
Source text: assayed in homogenates of corpus striatum obtained from rat brain. The
method of assay of the activity of DAsensitive adenylate cyclase by the
rate of formation of cAMP above a basal (no agonist) level is described
under Experimental Section. The data are mean values of cAMP levels in […]

[5] = molecular target: Dopamine Receptors; type: binding, calf; conditions: ligand [3H]APO (0.5 nM)
[6] = molecular target: Dopamine Receptors; type: binding, calf; conditions: ligand [3H]ADTN (0.5 nM)
[7] = molecular target: T2, rat liver catechol O-methyl-transferase (COMT) (Rattus norvegicus, UniProt P22734); assay: Isomeric substrate selectivity for rat liver COMT; type: biochemical
T2 construct: partially purified rat liver catechol O-methyl-transferase (COMT); from tissue; host or cells: rat liver, ammonium sulfate precipitation and dialysis
T2 sequence (P22734 1-221 isoform P22734-2): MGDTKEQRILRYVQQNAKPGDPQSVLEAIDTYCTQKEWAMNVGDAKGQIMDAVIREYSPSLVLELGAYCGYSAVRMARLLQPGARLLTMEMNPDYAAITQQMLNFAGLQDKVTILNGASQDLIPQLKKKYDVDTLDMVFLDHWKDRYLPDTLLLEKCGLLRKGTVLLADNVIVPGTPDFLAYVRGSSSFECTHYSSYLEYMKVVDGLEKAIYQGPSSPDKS

[8] = system: DA in the limbic system (nucleus accumbens septi); assay: Arousal (locomotor activity) induced by DA injected into nucleus accumbens septi; type: in vivo, rat; conditions: for activity counts (arousal induced by 16 μg DA in accumbens): 30 min, DA control 238 ± 38
Description: An experiment shown in Table 9 involves testing the effects of S(+) isomers of apomorphine (APO) and N-propylnorapomorphine (NPA) given systemically (intraperitoneally, ip), as well as S(+) methylenedioxy-N-propylnorapomorphine (MDO-NPA) given ip or orally (po, by orogastric intubation). […]. […] Activity was monitored for 30 min after injection of DA into the brain, which was done at 10 min after systemic dosing with an S(+)aporphine test compound.
Data are mean activity counts ± SEM (N = 6) for rats given DA into the
medial accumbens after pretreatment with an inhibitor of monoamine oxidas
(MA0), and monitored on EAM for 30 min (aporphine given 10 min before DA
systemicallyintraperitoneally [ip] or orally [po].

[9] = system: DA in the corpus striatum (basal ganglia); assay: Head posture (contralateral head deviation) after intrastriatal DA; type: in vivo, rat; conditions: intrastriatal DA 16 μg; aporphine 3 mg/kg systemic (route not given)
[10] = Table 5, (+)NPA 3 mg/kg s.c. after (-)NPA 0.3 mg/kg
[11] = Table 5, (+)NPA 3 mg/kg s.c. after (-)NPA 3.0 mg/kg
[12] = Table 5, (+)NPA 3 mg/kg s.c., (-)NPA 0
[13] = 2.5 min, read-out: cAMP production, % of control

T1 sequence (P18901 whole entry): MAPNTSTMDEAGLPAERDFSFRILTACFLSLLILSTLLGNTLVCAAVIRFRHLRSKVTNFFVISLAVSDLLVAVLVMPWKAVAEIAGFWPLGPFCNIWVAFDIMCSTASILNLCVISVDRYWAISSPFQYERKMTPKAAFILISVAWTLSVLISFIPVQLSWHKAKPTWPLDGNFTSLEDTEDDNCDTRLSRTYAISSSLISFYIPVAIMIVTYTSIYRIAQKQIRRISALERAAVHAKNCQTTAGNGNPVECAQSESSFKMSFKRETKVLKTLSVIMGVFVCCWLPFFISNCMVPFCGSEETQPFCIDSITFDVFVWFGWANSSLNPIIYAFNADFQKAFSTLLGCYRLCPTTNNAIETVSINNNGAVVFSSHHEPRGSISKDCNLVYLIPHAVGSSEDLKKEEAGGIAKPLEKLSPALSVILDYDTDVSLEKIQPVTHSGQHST

CCCN1CCc2cccc3c2[C@@H]1Cc1ccc(O)c(O)c1-3 [(+)NPA, (S)-N-n-Propylnorapomorphine Hydrochloride]
Stereotyped behavior induced by (-)APO, Percent of Control ([1]; (+)NPA 3 mg/kg IP after (-)APO 0.3 mg/kg IP): 100.0 ± 10.6% of Control
Stereotyped behavior induced by (-)APO, Percent of Control ([1]; (+)NPA 5 mg/kg IP after (-)APO 0.3 mg/kg IP): 100.0 ± 12.3% of Control
Stereotyped behavior induced by (-)APO, Percent of Control ([1]; (+)NPA 30 mg/kg IP after (-)APO 0.3 mg/kg IP): 102.6 ± 8.9% of Control
Stereotypy Score ([1]; Table 1, (+)NPA 5 mg/kg s.c. ± (-)APO 3 mg/kg s.c. (printed first: (+)NPA), maximum 3.0): 2.9 ± 0.1 rating units
Stereotypy Score ([1]; Table 1, (+)NPA 5 mg/kg s.c. ± (-)NPA 3 mg/kg s.c. (printed first: (+)NPA), maximum 3.0): 2.9 ± 0.2 rating units
Stereotypy Score ([1]; Table 1, (+)NPA 5 mg/kg, s.c., ± saline, maximum 3.0): 0.0 ± 0.0 rating units
Stereotypy Score ([1]; Table 1, (-)APO 3 mg/kg s.c. ± (+)NPA 5 mg/kg s.c. (printed first: (-)APO), maximum 3.0): 2.9 ± 0.1 rating units
Stereotypy Score ([1]; Table 1, (-)NPA 3 mg/kg s.c. ± (+)NPA 5 mg/kg s.c. (printed first: (-)NPA), maximum 3.0): 3.0 ± 0.0 rating units
Stereotypy Score ([1]; Table 3, 0.1 mg/kg, s.c., maximum 3.0): 0 rating units
Stereotypy Score ([1]; Table 3, 0.3 mg/kg, s.c., maximum 3.0): 0 rating units
Stereotypy Score ([1]; Table 3, 3.0 mg/kg, s.c., maximum 3.0): 0 rating units
Stereotypy Score ([1]; Table 3, 5.0 mg/kg, s.c., maximum 3.0): 0 rating units
Stereotypy Score [1, 10]: 1.7 ± 0.6 rating units
Stereotypy Score [1, 11]: 2.9 ± 0.8 rating units
Stereotypy Score [1, 12]: 0 rating units
stereotyped behavior (in words) ([1]; rat, in vivo): little effect on stereotyped gnawing
Total Activity ([2]; Table 3, 0.1 mg/kg, s.c.): 3.2 ± 1.1 percent change vs. placebo con
Total Activity ([2]; Table 3, 0.3 mg/kg, s.c.): -5.2 ± 3.1 percent change vs. placebo con
Total Activity ([2]; Table 3, 3.0 mg/kg, s.c.): -50.0 ± 18 percent change vs. placebo con
Total Activity ([2]; Table 3, 5.0 mg/kg, s.c.): -52.1 ± 21 percent change vs. placebo con
Total Activity [2, 10]: 18.8 ± 2.6 percent change
Total Activity [2, 11]: 156.7 ± 26 percent change
Total Activity [2, 12]: 0 percent change
Catalepsy score ([3]; 0.1 mg/kg): 0.6 ± 0.1
Catalepsy score ([3]; 0.3 mg/kg): 0.4 ± 0.1
Catalepsy score ([3]; 3.0 mg/kg): 0.6 ± 0.1
Catalepsy score ([3]; 5.0 mg/kg): 0.6 ± 0.1
cAMP production ([4]; 10 μM): 2.95 ± 0.19 picomoles per 2.5 min
cAMP production ([4]; 100 μM): 3.19 ± 0.16 picomoles per 2.5 min
cAMP formation, % of control at 10 µM [4, 13]: 119%
cAMP formation, % of control at 100 µM [4, 13]: 129%
IC50 [5]: 66 nM
IC50 [6]: 60 nM
Vmax (range of two experiments) ([7]; footnote range): 10.2- 13.2 (pmol/assay)/h
Vmax ([7]; mean, substrate of rat liver COMT): 11.7 (pmol/assay)/h
activity counts (arousal induced by 16 μg DA in accumbens) ([8]; 0.3 mg/kg ip): 139 ± 17 activity counts
activity counts (arousal induced by 16 μg DA in accumbens) ([8]; 1.0 mg/kg ip): 80 ± 11 activity counts
activity counts (arousal induced by 16 μg DA in accumbens) ([8]; 3.0 mg/kg ip): 54 ± 10 activity counts
ED50 ([8]; Rattus norvegicus, ip, read-out: ID50, ip, DA 16 μg in accumbens): 0.4 mg/kg
ID50 ([8]; ip, DA 16 μg in accumbens, hydrochloride): 0.45 mg/kg
times more potent than (+)APO as inhibitor of DA in the limbic system ([8]; vs (+)APO): 8 times
Contralateral Head Deviation, Percent of Total [9]: 66.7% of Total
Contralateral Head Deviation, Time [9]: 480 ± 44 s
